Experimental data from patent publication US12649722B2, “Herbicidal cinnoline derivatives” (SYNGENTA CROP PROTECTION AG, priority 2020, dated 2026).

Legend:
Assay type in all cases: in vivo
[1] = test system: Solarium nigrum (SOLNI); experiment: Pre-emergence Test, SOLNI; details: 1000 g/ha, evaluated after 13 days
[2] = test system: Amaranthus retoflexus (AMARE); experiment: Pre-emergence Test, AMARE; details: 1000 g/ha, evaluated after 13 days
[3] = test system: Ipornoea hederacea (IPOHE); experiment: Pre-emergence Test, IPOHE; details: 1000 g/ha, evaluated after 13 days
[4] = test system: Echinochloa crus-galli (ECHCG); experiment: Pre-emergence Test, ECHCG; details: 1000 g/ha, evaluated after 13 days
[5] = test system: Lolium perenne (LOLPE); experiment: Pre-emergence Test, LOLPE; details: 1000 g/ha, evaluated after 13 days
[6] = test system: Setaria faberi (SETFA); experiment: Pre-emergence Test, SETFA; details: 1000 g/ha, evaluated after 13 days
[7] = test system: Solarium nigrum (SOLNI); experiment: Post-emergence Test, SOLNI; details: sprayed after 8 days cultivation, 1000 g/ha, evaluated after 13 days
Experimental: (§1) Seeds of a variety of test species are sown in standard soil in pots (Amaranthus retoflexus (AMARE), Solarium nigrum (SOLNI), Setaria faberi (SETFA), Lolium perenne (LOLPE), Echinochloa crus-galli (ECHCG), Ipornoea hederacea (IPOHE)). After 8 days cultivation under controlled conditions in a glasshouse (at 24° C./16° C., day/night; 14 hours light; 65% humidity), the plants are sprayed with an aqueous spray solution derived from the formulation of the technical active ingredient in acetone/water (50:50) solution containing 0.5% Tween 20 (polyoxyethylene sorbitan monolaurate, CAS RN 9005-64-5). Compounds are applied at 1000 g/ha unless otherwise stated. The test plants are then grown in a glasshouse under controlled conditions in a glasshouse (at 24° C./16° C., day/night; 14 hours light; 65% humidity) and watered twice daily. After 13 days the test is evaluated for the percentage damage caused to the plant. The biological activities are shown in the following table on a five-point scale (5=81-100%; 4=61-80%; 3=41-60%; 2=21-40%; 1=10-20%; 0=0%; −=not tested).

[8] = test system: Amaranthus retoflexus (AMARE); experiment: Post-emergence Test, AMARE; details: sprayed after 8 days cultivation, 1000 g/ha, evaluated after 13 days
Procedure, shortened: (§2)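 Pots sown with AMARE, SOLNI, SETFA, LOLPE, ECHCG, IPOHE, kept in glasshouse (24/16 °C, 14 h light, 65% humidity), sprayed at 1000 g/ha unless stated, in acetone/water 50:50 with 0.5% Tween 20. Damage scored after 13 days on a 0–5 scale (5=81–100%, 0=0%).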

[9] = test system: Ipornoea hederacea (IPOHE); experiment: Post-emergence Test, IPOHE; details: sprayed after 8 days cultivation, 1000 g/ha, evaluated after 13 days
Procedure, shortened: as §2

[10] = test system: Echinochloa crus-galli (ECHCG); experiment: Post-emergence Test, ECHCG; details: sprayed after 8 days cultivation, 1000 g/ha, evaluated after 13 days
Procedure, shortened: as §2

[11] = test system: Lolium perenne (LOLPE); experiment: Post-emergence Test, LOLPE; details: sprayed after 8 days cultivation, 1000 g/ha, evaluated after 13 days
Experimental: as §1

[12] = test system: Setaria faberi (SETFA); experiment: Post-emergence Test, SETFA; details: sprayed after 8 days cultivation, 1000 g/ha, evaluated after 13 days
Procedure, shortened: as §2

[13] = test system: ZEAMX; experiment: Pre-emergence Test, ZEAMX; details: 1000 g/ha, evaluated after 13 days
[14] = test system: ABUTH; experiment: Pre-emergence Test, ABUTH; details: 1000 g/ha, evaluated after 13 days
[15] = test system: ZEAMX; experiment: Post-emergence Test, ZEAMX; details: sprayed after 8 days cultivation, 1000 g/ha, evaluated after 13 days
[16] = test system: ABUTH; experiment: Post-emergence Test, ABUTH; details: sprayed after 8 days cultivation, 1000 g/ha, evaluated after 13 days

Structure (SMILES) | percentage damage caused to the plant, SOLNI [1] | percentage damage caused to the plant, AMARE [2] | percentage damage caused to the plant, IPOHE [3] | percentage damage caused to the plant, ECHCG [4] | percentage damage caused to the plant, LOLPE [5] | percentage damage caused to the plant, SETFA [6] | percentage damage caused to the plant, SOLNI [7] | percentage damage caused to the plant, AMARE [8] | percentage damage caused to the plant, IPOHE [9] | percentage damage caused to the plant, ECHCG [10] | percentage damage caused to the plant, LOLPE [11] | percentage damage caused to the plant, SETFA [12] | percentage damage caused to the plant, ZEAMX [13] | percentage damage caused to the plant, ABUTH [14] | percentage damage caused to the plant, ZEAMX [15] | percentage damage caused to the plant, ABUTH [16]
O=C(O)c1nn(-c2ccc(Cl)cc2)c2cccc(Oc3ccc(F)cc3)c2c1=O [Compound P11, 1-(4-chlorophenyl)-5-(4-fluorophenoxy)-4-oxo-cinnoline-3-carboxylic acid] | 5 (5=81-100%) | 3 (3=41-60%) | 0 (0=0%) | 0 (0=0%) | 0 (0=0%) | 0 (0=0%) | 1 (1=10-20%) | 5 (5=81-100%) | 0 (0=0%) | 0 (0=0%) | 0 (0=0%) | 0 (0=0%) | – | – | – | –
CO/N=C(\C)c1cccc2c1c(=O)c(C(=O)OC)nn2-c1ccc(OC(F)(F)F)cc1 [Compound P1, methyl 5-[(E)-N-methoxy-C-methyl-carbonimidoyl]-4-oxo-1-[4-(trifluoromethoxy)phenyl] cinnoline-3-carboxylate] | 1 (1=10-20%) | 1 (1=10-20%) | 1 (1=10-20%) | 5 (5=81-100%) | 4 (4=61-80%) | 5 (5=81-100%) | 3 (3=41-60%) | 2 (2=21-40%) | 2 (2=21-40%) | 5 (5=81-100%) | 4 (4=61-80%) | 4 (4=61-80%) | – | – | – | –
COC(=O)c1nn(-c2ccc(OC(F)(F)F)cc2)c2cccc(-c3ccc(F)cc3)c2c1=O [Compound P6, methyl 5-(4-fluorophenyl)-4-oxo-1-[4-(trifluoromethoxy)phenyl] cinnoline-3-carboxylate] | 0 (0=0%) | 0 (0=0%) | 0 (0=0%) | 0 (0=0%) | 0 (0=0%) | 0 (0=0%) | 0 (0=0%) | 0 (0=0%) | 0 (0=0%) | 0 (0=0%) | 0 (0=0%) | 0 (0=0%) | – | – | – | –
COC(=O)c1nn(-c2ccc(OC(F)(F)F)cc2)c2cccc(C#N)c2c1=O [Compound P7, methyl 5-cyano-4-oxo-1-[4-(trifluoromethoxy)phenyl] cinnoline-3-carboxylate] | 0 (0=0%) | 0 (0=0%) | 0 (0=0%) | 2 (2=21-40%) | 0 (0=0%) | 1 (1=10-20%) | 2 (2=21-40%) | 1 (1=10-20%) | 0 (0=0%) | 1 (1=10-20%) | 0 (0=0%) | 1 (1=10-20%) | – | – | – | –
O=C(O)c1nn(-c2ccc(OC(F)(F)F)cc2)c2cccc(-c3ncco3)c2c1=O [Compound P5, 5-oxazol-2-yl-4-oxo-1-[4-(trifluoromethoxy)phenyl] cinnoline-3-carboxylic acid] | 0 (0=0%) | 0 (0=0%) | 0 (0=0%) | 0 (0=0%) | 0 (0=0%) | 1 (1=10-20%) | 2 (2=21-40%) | 1 (1=10-20%) | 0 (0=0%) | 3 (3=41-60%) | 2 (2=21-40%) | 4 (4=61-80%) | – | – | – | –
C=C(OC)c1cccc2c1c(=O)c(C(=O)OC)nn2-c1ccc(OC(F)(F)F)cc1 [Compound P4, methyl 5-(1-methoxyvinyl)-4-oxo-1-[4-(trifluoromethoxy)phenyl] cinnoline-3-carboxylate] | 0 (0=0%) | 0 (0=0%) | 0 (0=0%) | 5 (5=81-100%) | 5 (5=81-100%) | 5 (5=81-100%) | 0 (0=0%) | 0 (0=0%) | 4 (4=61-80%) | 4 (4=61-80%) | 4 (4=61-80%) | 4 (4=61-80%) | – | – | – | –
CC(=O)c1cccc2c1c(=O)c(C(=O)O)nn2-c1ccc(OC(F)(F)F)cc1 [Compound P10, 5-acetyl-4-oxo-1-[4-(trifluoromethoxy)phenyl] cinnoline-3-carboxylic acid] | 1 (1=10-20%) | 1 (1=10-20%) | 0 (0=0%) | 5 (5=81-100%) | 4 (4=61-80%) | 5 (5=81-100%) | 4 (4=61-80%) | 1 (1=10-20%) | 4 (4=61-80%) | 4 (4=61-80%) | 4 (4=61-80%) | 4 (4=61-80%) | – | – | – | –
CCOC(=O)c1nn(-c2ccc(OC(F)(F)F)cc2)c2cccc(-n3cc(C(F)(F)F)nn3)c2c1=O [Compound P33, ethyl 4-oxo-1-[4-(trifluoromethoxy)phenyl]-5-[4-(trifluoromethyl)triazol-1-yl]cinnoline-3-carboxylate] | – | 0 (0=0%) | 0 (0=0%) | 0 (0=0%) | – | 0 (0=0%) | – | 0 (0=0%) | 0 (0=0%) | 0 (0=0%) | – | 0 (0=0%) | 1 (1=10-20%) | 0 (0=0%) | 0 (0=0%) | 0 (0=0%)
